From ChEMBL document CHEMBL4414648, “Novel Benzohydroxamate-Based Potent and Selective Histone Deacetylase 6 (HDAC6) Inhibitors Bearing a Pentaheterocyclic Scaffold: Design, Synthesis, and Biological Evaluation” (J Med Chem, 2019)
Active and inactive are the calls of the source. No cut-off for these calls is given here.

Assays:
Mus musculus [1] = experiment: In vivo inhibition of HDAC6 in C57BL/6 mouse assessed as increase in acetylated tubulin level in spleen cytosolic protein extract at 30 mg/kg, ip measured after 24 hrs by ELISA; type: functional, organism-based
[2] = Toxicity in C57BL/6 mouse assessed as effect on social behavior up to 50 mg/kg, ip administered for 5 days/week for two cycles; type: organism-based; settings: in vivo, 120 h
Mus musculus [3] = experiment: In vivo inhibition of HDAC6 in C57BL/6 mouse assessed as increase in acetylated tubulin level in spleen cytosolic protein extract at 30 mg/kg, ip measured after 60 mins by ELISA relative to control; type: functional
[4] = Toxicity in C57BL/6 mouse assessed as effect on body weight at 30 mg/kg, ip administered for 5 days/week for two cycles and measured every other day relative to control; type: organism-based; settings: in vivo, 120 h
[5] = Toxicity in C57BL/6 mouse assessed as induction of diarrhea up to 50 mg/kg, ip administered for 5 days/week for two cycles and measured daily starting from day 1; type: organism-based; settings: in vivo, 120 h
[6] = Stability in rat liver S9 fraction assessed as parent compound remaining at 5 uM after 90 mins in presence of NADPH by LC-MS/MS analysis; type: ADME, subcellular; settings: read-out: Stability
PBMC = experiment: Cytotoxicity against human PBMC cells after 72 hrs by CellTiter 96 aqueous one solution assay; type: cell-based
[7] = Toxicity in C57BL/6 mouse assessed as induction of leukopenia up to 50 mg/kg, ip administered for 5 days/week for two cycles; type: organism-based; settings: in vivo, 120 h
[8] = Toxicity in C57BL/6 mouse assessed as induction of kyphosis up to 50 mg/kg, ip administered for 5 days/week for two cycles and measured daily starting from day 1; type: organism-based; settings: in vivo, 120 h
Histone deacetylase = experiment: Inhibition of HDAC in human 697 cells assessed as increase in H3 acetylation at 1000 nM incubated for 16 hrs by ELISA; type: cell-based; settings: human, 697, 16 h, 1 µM
[9] = target: T1, Protein deacetylase HDAC6 (Homo sapiens) (UniProt Q9UBN7); experiment: Inhibition of HDAC6 in HEK293 cells harboring human Foxp3 assessed as induction of Foxp3 hyperacetylation in whole cell lysates at 500 nM incubated for 6 hrs by SDS-PAGE based Western blot analysis; type: subcellular; settings: Lysate
T1 sequence (whole entry): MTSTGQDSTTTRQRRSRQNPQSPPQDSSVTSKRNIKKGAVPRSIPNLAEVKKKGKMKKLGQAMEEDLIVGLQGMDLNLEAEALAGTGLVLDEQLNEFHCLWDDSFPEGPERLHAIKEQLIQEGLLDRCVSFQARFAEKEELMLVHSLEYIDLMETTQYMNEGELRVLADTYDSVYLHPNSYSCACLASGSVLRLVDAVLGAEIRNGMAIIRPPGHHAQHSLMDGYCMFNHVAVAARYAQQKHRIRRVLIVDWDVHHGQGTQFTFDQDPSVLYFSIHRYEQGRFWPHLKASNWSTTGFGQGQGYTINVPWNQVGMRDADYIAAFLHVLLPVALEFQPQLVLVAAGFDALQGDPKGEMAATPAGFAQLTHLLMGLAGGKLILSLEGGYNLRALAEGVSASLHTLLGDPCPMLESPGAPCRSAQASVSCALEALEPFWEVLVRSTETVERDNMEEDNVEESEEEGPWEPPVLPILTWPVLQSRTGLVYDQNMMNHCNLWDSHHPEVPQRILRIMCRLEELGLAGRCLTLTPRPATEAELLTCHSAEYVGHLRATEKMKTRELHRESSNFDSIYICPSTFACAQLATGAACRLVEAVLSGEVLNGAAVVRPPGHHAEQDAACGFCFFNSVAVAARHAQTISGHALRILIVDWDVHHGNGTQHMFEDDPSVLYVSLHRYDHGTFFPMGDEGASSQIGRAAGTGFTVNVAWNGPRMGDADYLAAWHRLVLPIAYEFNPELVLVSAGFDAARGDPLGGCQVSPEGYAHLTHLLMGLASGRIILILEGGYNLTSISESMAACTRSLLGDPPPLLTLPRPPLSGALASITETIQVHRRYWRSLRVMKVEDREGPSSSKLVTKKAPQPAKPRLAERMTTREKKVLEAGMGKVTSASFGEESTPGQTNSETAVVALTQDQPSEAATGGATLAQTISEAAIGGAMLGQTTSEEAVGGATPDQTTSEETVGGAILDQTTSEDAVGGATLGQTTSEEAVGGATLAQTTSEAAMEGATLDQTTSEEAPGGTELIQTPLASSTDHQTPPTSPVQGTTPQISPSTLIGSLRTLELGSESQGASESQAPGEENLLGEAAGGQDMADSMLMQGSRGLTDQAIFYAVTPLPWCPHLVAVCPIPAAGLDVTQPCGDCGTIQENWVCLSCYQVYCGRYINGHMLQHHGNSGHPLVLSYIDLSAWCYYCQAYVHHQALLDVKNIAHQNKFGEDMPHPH

697 = experiment: Cytotoxicity against human 697 cells after 48 hrs by CellTiter 96 aqueous one solution assay; type: cell-based; settings: Homo sapiens, 697, 48 h
[10] = Oral bioavailability in CD-1 mouse at 5.2 mg/kg measured within 6 hrs by LC-MS/MS analysis; type: ADME, organism-based; settings: in vivo
[11] = Toxicity in C57BL/6 mouse assessed as effect on WBC level at 30 mg/kg, ip administered for 5 days/week for two cycles and measured 60 mins post last dose by beckman coulter counting method relative to control; type: organism-based; settings: in vivo, 1 h
[12] = Selectivity ratio of IC50 for C-terminal His-tagged human HDAC8 expressed in baculovirus infected sf9 insect cells to IC50 for human N-terminal GST-tagged HDAC6 expressed in baculovirus infected sf9 insect cells

**Q.** Which results are given for `Cn1c(Sc2ccc(C(=O)NO)cc2)nnc1-c1cccs1`?
**A.** inhibition (Mus musculus [1]): Active; Activity [2]: Non-Toxic; fold change (FC) (Mus musculus [3]): 10; Activity [4]: 3.9%; Activity [5]: Non-Toxic; remaining at […], 5 µM [6]: 82%; IC50 (PBMC): > 1000 nM; Activity [7]: Toxic; Activity [8]: Non-Toxic; inhibition (INH) (Histone deacetylase): Active; inhibition [9]: Active; IC50 697: > 1000 nM; bioavailability [10]: 26%; Activity [11]: -34%; Ratio IC50 [12]: 62
